One data set concerns the target T1, UGT1A3 (Homo sapiens, UniProt P35503).
T1 construct: tissue XenoTech XTreme 200; host or cells: pooled human liver microsomes
Kind of data set: Inhibition of UGT1A3 (chenodeoxycholic acid glucuronidation) in human liver microsomes. It counts as in vitro ADME. The following applies: substrate chenodeoxycholic acid; HLMs. The method, then:
(§1) The ability of selamariscina A to inhibit the metabolism of six UGT enzyme probe substrates was evaluated using previously developed methods with minor modifications. The microsomal incubation was performed by dividing the non-interactive substrate cocktail sets (set A included SN-38 for UGT1A1, CDCA for UGT1A3 and TFP for UGT1A4 while set B included N-SER for UGT1A6, MPA for UGT1A9 and NX for UGT2B7) (Table 2). In brief, HLMs (0.25 mg/mL) were activated by incubation in the presence of alamethicin (25 µg/mL) for 15 min on ice. After the addition of UGT probe substrates and inhibitor (0, 0.5, 2, 5, 20 and 50 μM), the incubation mixtures were pre-incubated at 37 °C for 5 min. […] After centrifugation at 18,000 g (5 min, 4 °C), aliquots of supernatants were analyzed by LC–MS/MS. […]
(§2) All metabolites and the IS were separated on a Kinetex XB-C18 column (100 × 2.10 mm, 2.6 μm, 100 Å; Phenomenex, Torrance, CA, USA) and analyzed using a Shimadzu LCMS 8060 triple-quadrupole mass spectrometer coupled with a Nexera X2 ultra high-performance liquid chromatography system (Shimadzu, Kyoto, Japan) equipped with an electrospray ionization interface. […] Quantitation was conducted in selected reaction monitoring (SRM) modes with the precursor-to-product ion transition for each metabolite (Table 1 and Table 2).
(§3) We analyzed the data with Shimadzu LabSolution LC–MS software. […]
In general terms: Liver microsomes are vesicles of endoplasmic reticulum, rich in cytochrome P450 enzymes.

Another data set concerns the target T2, UGT1A4 (Homo sapiens, UniProt P22310).
T2 construct: tissue XenoTech XTreme 200; host or cells: pooled human liver microsomes
Kind of data set: Inhibition of UGT1A4 (trifluoperazine glucuronidation) in human liver microsomes. It counts as in vitro ADME. The following applies: substrate trifluoperazine; HLMs; average ± standard error. On the procedure:
as §1, §2, §3

The next data set has as its target T3, UGT1A9 (Homo sapiens, UniProt O60656).
T3 construct: tissue XenoTech XTreme 200; host or cells: pooled human liver microsomes
The data set can be described thus: Inhibition of UGT1A9 (mycophenolic acid glucuronidation) in human liver microsomes. It counts as in vitro ADME. The following applies: substrate mycophenolic acid; HLMs; average ± standard error. The method, then:
as §1, §2, §3

A further data set addresses T4, UGT1A6 (Homo sapiens, UniProt P19224).
T4 construct: tissue XenoTech XTreme 200; host or cells: pooled human liver microsomes
The data set can be described thus: Inhibition of UGT1A6 (N-acetylserotonin glucuronidation) in human liver microsomes. It counts as in vitro ADME. The following applies: substrate N-acetylserotonin; HLMs; average ± standard error. The method, then:
as §1, §2, §3

Data set [1] concerns the target T5, CYP2C8 (Homo sapiens, UniProt P10632).
T5 sequence (P10632 1-490): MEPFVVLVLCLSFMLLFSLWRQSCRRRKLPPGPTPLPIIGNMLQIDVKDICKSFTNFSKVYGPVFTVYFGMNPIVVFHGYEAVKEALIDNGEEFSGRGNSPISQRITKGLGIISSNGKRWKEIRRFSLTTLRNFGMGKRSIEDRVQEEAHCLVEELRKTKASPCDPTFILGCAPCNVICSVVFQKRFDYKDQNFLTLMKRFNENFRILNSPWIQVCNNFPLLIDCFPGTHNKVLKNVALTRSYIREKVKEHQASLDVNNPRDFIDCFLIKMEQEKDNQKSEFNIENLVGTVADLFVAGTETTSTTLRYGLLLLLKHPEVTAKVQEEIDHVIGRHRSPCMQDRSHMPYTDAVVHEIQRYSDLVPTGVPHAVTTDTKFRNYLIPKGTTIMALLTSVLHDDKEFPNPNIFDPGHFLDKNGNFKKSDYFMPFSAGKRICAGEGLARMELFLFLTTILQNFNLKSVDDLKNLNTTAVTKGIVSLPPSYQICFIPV
Kind of data set: Time-dependent inhibition (IC50 shift) of CYP2C8, amodiaquine, human liver microsomes. It counts as in vitro ADME. The arrangement: incubation mixtures containing pooled human liver microsomes (HLMs, XTreme 200, XenoTech); tissue XenoTech XTreme 200; host or cells: pooled human liver microsomes. The method, then:
The time-dependent inhibition of selamariscina A against CYP2C8 and CYP2C9 enzymes was evaluated using an IC50 shift method. Selamariscina A was pre-incubated at six concentrations (0, 0.002, 0.005, 0.02, 0.05, and 0.2 μM) with HLMs in the presence of an NDAPH generation system for 30 min at 37 °C. The reaction was initiated by adding 1 μM amodiaquine or 10 μM diclofenac and further incubated for 10 min. Incubation was terminated by adding 50 μL of ice-cold acetonitrile containing 7 nM trimipramine. After centrifugation, aliquots of supernatants were analyzed by LC–MS/MS.
All metabolites and the IS were separated on a Kinetex XB-C18 column (100 × 2.10 mm, 2.6 μm, 100 Å; Phenomenex, Torrance, CA, USA) and analyzed using a Shimadzu LCMS 8060 triple-quadrupole mass spectrometer coupled with a Nexera X2 ultra high-performance liquid chromatography system (Shimadzu, Kyoto, Japan) equipped with an electrospray ionization interface. The mobile phase consisted of 0.1% formic acid in water (A) and 0.1% formic acid in acetonitrile (B). The elution condition was set as 8% B (0–0.5 min), 8%→60% B (0.5–5 min), 60% B (5–6 min), 60%→8% B (6–6.1 min) and 8% B (6.1–9 min) for the analysis of metabolites of P450 probe substrates and set as 0%→40% B (0–1 min), 40%→50% B (1–5 min), 50%→0% B (5–5.1 min), and 0% B (5.1–8 min) for the analysis of metabolites of UGT probe substrates. The flow rate was 0.2 mL/min. Electrospray ionization was performed in positive-ion mode at 4000 V or in negative-ion mode at −3500 V. The optimum operating conditions were determined as follows: vaporizer temperature, 300 °C; capillary temperature, 350 °C; collision gas (argon) pressure, 1.5 mTorr. Quantitation was conducted in selected reaction monitoring (SRM) modes with the precursor-to-product ion transition for each metabolite (Table 1 and Table 2).
We analyzed the data with Shimadzu LabSolution LC–MS software. The IC50 values were calculated by WinNonlin software (Pharsight, Mountain View, CA, USA). […]

Data set [2] concerns the target T5, CYP2C8. The following applies: read-out: IC50, CYP2C8, known inhibitor; cited from earlier work.
For data set [3] the following is noted: cited from earlier work.

The structures appear in SMILES notation. Like-named read-outs stand apart in the source and are kept apart here.

One may read the Cmax as the peak of the concentration-time curve.

T1 sequence (P35503 29-534): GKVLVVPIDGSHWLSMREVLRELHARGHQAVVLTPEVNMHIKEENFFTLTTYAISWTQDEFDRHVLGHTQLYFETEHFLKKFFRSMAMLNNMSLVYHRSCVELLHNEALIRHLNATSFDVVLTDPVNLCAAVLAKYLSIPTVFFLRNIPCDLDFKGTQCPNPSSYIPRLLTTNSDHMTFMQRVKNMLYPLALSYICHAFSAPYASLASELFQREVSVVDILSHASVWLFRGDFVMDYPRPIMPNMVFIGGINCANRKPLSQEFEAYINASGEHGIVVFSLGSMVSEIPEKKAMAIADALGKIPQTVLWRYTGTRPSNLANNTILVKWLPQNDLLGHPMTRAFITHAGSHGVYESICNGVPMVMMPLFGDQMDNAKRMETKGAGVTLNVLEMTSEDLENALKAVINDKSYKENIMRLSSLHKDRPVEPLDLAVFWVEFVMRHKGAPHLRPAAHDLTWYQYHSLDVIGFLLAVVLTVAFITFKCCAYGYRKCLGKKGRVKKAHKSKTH
T2 sequence (P22310 29-534): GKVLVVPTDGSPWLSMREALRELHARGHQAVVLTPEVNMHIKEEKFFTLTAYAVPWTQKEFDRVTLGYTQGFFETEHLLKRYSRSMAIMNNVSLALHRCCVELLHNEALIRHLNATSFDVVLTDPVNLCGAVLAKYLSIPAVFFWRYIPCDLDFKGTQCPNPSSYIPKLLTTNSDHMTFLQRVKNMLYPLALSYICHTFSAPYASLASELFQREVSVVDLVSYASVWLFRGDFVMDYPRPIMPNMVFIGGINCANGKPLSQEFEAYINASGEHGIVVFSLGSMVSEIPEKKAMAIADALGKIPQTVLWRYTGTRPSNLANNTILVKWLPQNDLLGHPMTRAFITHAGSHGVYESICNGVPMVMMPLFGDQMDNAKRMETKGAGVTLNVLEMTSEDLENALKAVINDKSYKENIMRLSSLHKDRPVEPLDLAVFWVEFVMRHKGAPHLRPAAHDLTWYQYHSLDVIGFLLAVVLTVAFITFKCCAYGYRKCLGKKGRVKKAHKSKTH
T4 sequence (P19224 27-532): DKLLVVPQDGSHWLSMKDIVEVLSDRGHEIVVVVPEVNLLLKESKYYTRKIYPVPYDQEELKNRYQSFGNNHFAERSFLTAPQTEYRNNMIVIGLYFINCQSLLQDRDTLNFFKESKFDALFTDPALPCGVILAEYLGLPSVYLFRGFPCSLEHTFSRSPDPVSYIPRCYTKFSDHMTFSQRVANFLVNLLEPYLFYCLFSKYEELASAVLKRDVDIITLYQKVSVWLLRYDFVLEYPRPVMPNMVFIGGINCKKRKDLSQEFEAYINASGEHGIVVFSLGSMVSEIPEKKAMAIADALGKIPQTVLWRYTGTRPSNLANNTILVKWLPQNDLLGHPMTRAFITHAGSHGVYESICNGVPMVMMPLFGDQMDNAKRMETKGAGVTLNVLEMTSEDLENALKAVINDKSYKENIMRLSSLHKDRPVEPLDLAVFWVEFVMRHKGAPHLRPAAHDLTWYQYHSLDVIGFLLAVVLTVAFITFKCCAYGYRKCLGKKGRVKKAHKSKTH
T3 sequence (O60656 26-530): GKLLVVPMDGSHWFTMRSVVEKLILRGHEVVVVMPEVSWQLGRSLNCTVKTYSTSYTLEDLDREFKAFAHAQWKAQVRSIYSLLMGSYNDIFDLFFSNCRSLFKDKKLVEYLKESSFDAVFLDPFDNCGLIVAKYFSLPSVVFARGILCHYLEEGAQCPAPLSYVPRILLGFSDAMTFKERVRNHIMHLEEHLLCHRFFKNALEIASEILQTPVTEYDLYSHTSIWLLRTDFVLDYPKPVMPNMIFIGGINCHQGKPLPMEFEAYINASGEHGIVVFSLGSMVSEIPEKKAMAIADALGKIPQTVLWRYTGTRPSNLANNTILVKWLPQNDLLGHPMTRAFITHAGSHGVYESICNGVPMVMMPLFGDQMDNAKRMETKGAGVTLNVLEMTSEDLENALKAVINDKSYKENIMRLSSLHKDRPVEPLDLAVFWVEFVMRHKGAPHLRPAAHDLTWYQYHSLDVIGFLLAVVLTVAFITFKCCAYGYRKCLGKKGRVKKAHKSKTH

Turning to `O=C1CC(c2cc(-c3c(O)ccc4c(=O)cc(-c5ccc(O)cc5)oc34)c(O)cc2O)Oc2cc(O)cc(O)c21` (stereo not drawn) [selamariscina A], the IC50 is greater than 50 µM against UGT1A3; 7.7 ± 1.9 µM against UGT1A4; 40.4 ± 11.1 µM against UGT1A9; 46.1 ± 11.7 µM against UGT1A6; 0.031 µM on CYP2C8 [1] (30 min pre-incubation at 37 °C with NADPH generation system, read-out: IC50, CYP2C8 amodiaquine, HLMs pre-incubated with NADPH generation system); 0.019 µM at CYP2C8 [1] (no NADPH pre-incubation, read-out: IC50, CYP2C8 amodiaquine, untreated HLMs). For the same compound, at CYP2C8 [1] (IC50 shift method), the “Time-dependent inhibition of CYP2C8” value is reported as “not a time-dependent inhibitor”.
Regarding `CC(C)(O)c1ccccc1CC[C@@H](SCC1(CC(=O)O)CC1)c1cccc(/C=C/c2ccc3ccc(Cl)cc3n2)c1` [montelukast, reference compound], the IC50 on CYP2C8 [2] is 0.02 µM.
With `O=c1cc(-c2ccc(O)c(-c3c(O)cc(O)c4c(=O)cc(-c5ccc(O)cc5)oc34)c2)oc2cc(O)cc(O)c12` [amentoflavone], the Cmax in data set [3] (liposome-based Selaginella doderleinii Hieron extracts 200 mg/kg, read-out: Cmax after liposome-based extract) is 220 nM. Besides, in data set [3] (liposome-based extracts 200 mg/kg versus control), the “Cmax, times higher than control” value is listed as 5.4 times. Also, the “Maximum concentration in rat blood” value in data set [3] (single oral dose of Selaginella doderleinii Hieron extracts 200 mg/kg) was 0.041 µM; in data set [3] (single oral dose of Selaginella doderleinii Hieron extracts 600 mg/kg), 0.063 µM.
